Experimental data taken from patent US11389395B2, “Encapsulation of microbubbles within the aqueous core of microcapsules” (DREXEL UNIVERSITY, priority 2009, dated 2022).

Legend:
[1] = Microbubble growth on heating above the phospholipid chain melting temperature; assay type: physicochemical; details: microbubbles made at 7° C., heated to 37° C.
Source text: Use of a gel-phase lipid is required to prevent gas from escaping the microbubble. […] Indeed, these microbubbles expanded so as to fill the capillary in which they were contained and therefore became nonspherical, taking on the geometry of the capillary itself. […] Such growth may have resulted from simple expansion of individual microbubbles or by inward diffusion of gas.

[2] = Survival of microbubbles made at different processing temperatures; assay type: physicochemical; details: formulations included 5 mol % PEG6000MS; for survival of microbubbles, 7° C.: processing temperature 7° C.; for survival of microbubbles, 37° C.: processing temperature 37° C.; for survival of microbubbles, 60° C.: processing temperature 60° C.
Source text: Table 1 lists three phospholipid species, along with their gel transition temperatures, and the results of experiments attempting to make stable microbubbles with these species at different temperatures. All microbubble formulations included 5 mol % PEG6000MS.
In all cases in which the processing temperature was below the gel transition temperature, irrespective of the phospholipid identity, microbubble synthesis was feasible. Conversely, microbubble synthesis at temperatures greater than the gel transition temperature was not feasible, regardless of which phospholipid was used.

Structure (SMILES): CCCCCCCCCCCCCC(=O)OC[C@H](COP(=O)([O-])OCC[N+](C)(C)C)OC(=O)CCCCCCCCCCCCC [DMPC, dimyristoylphosphatidylcholine]
- microbubble growth upon heating [1]: grew spontaneously
- survival of microbubbles, 7° C. [2]: Yes
- survival of microbubbles, 37° C. [2]: No
- survival of microbubbles, 60° C. [2]: No

Structure (SMILES): CCCCCCCCCCCCCCCCCC(=O)OC[C@H](COP(=O)([O-])OCC[N+](C)(C)C)OC(=O)CCCCCCCCCCCCCCCCC [DSPC, 1,2-distearoyl-sn-glycero-3-phosphocholine]
- microbubble growth upon heating [1]: No such growth was observed
- survival of microbubbles, 7° C. [2]: Yes
- survival of microbubbles, 37° C. [2]: Yes
- survival of microbubbles, 60° C. [2]: No
